63 molecules from patent US6310095A, “Inhibitors of protein isoprenyl transferases” (University of Pittsburgh, priority 1998, dated 2001) can be followed below.

One experiment has as its target T1, protein farnesyltransferase (Rattus norvegicus, UniProt Q02293+Q04631).
T1 construct: Rat brain protein farnesyltransferase activity is measured; from tissue; host or cells: rat brain; purified according to Reiss et al., Cell 62:81-88 (1990), steps one through three
Kind of experiment: in vitro inhibition of protein farnesyltransferase (scintillation proximity assay, biotin-K Ras B fragment). The following applies: at 1 × 10^-5 M. The format is biochemical. The method in brief: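 Rat brain enzyme, purified through three steps, in a scintillation proximity assay kit with biotin-K Ras B fragment substrate at 0.1 mM final. Value is % inhibition of farnesylation.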
Background: In a scintillation proximity assay essentially only radioactivity close to the scintillant gives light.
The term inhibition denotes how much of the control response was suppressed. As for `COc1cc2c(cc1OC)C(CNCc1ccc(C(=O)N[C@@H](CCSC)C(=O)O)c(-c3ccccc3)c1)=CC(C1CCCCC1)C2` (stereo partly drawn) [Example 659], 10 µM produced 55% inhibition.

`CSCC[C@H](NC(=O)c1ccc(CNCCC2CCCCC2)cc1-c1ccccc1)C(=O)O` [Example 663] returned an inhibition at 10 µM of 43%. The molecule `C=C[C@@H](CC1CCCCC1)NCc1ccc(C(=O)N[C@@H](CCSC)C(=O)O)c(-c2ccccc2)c1` [Example 664] had an inhibition at 10 µM of 75%. For `CSCC[C@H](NC(=O)c1ccc(CNc2ccccc2N(C)C)cc1-c1ccccc1)C(=O)O` [Example 672], the inhibition at 10 µM was found to be 48%. Turning to `CSCC[C@H](NC(=O)c1ccc(CNc2cccc(C)c2)cc1-c1ccccc1)C(=O)O` [Example 674], the inhibition at 10 µM was determined as 40%. In turn, `CSCC[C@H](NC(=O)c1ccc(CNc2cccc(O)c2)cc1-c1ccccc1)C(=O)O` [Example 676] came in with an inhibition at 10 µM of 76%. Take `CSCC[C@H](NC(=O)c1ccc(CNc2cccc(OC(F)(F)F)c2)cc1-c1ccccc1)C(=O)O` [Example 678]: the inhibition at 10 µM was 73%. Turning to `CSCC[C@H](NC(=O)c1ccc(CNc2cccc(CO)c2)cc1-c1ccccc1)C(=O)O` [Example 680], the inhibition at 10 µM is 58%.

Consider `CSCC[C@H](NC(=O)c1ccc(CNc2cccc(N(C)C)c2)cc1-c1ccccc1)C(=O)O` [Example 683], for which the inhibition at 10 µM was found to be 57%. Still for that read-out and setting: to `CSCC[C@H](NC(=O)c1ccc(CNc2cccc(CC(=O)O)c2)cc1-c1ccccc1)C(=O)O` [Example 684] belongs 48%; to `CSCC[C@H](NC(=O)c1ccc(CNc2cccc(CCC(=O)O)c2)cc1-c1ccccc1)C(=O)O` [Example 685], 55%; to `CSCC[C@H](NC(=O)c1ccc(CNc2cccc(Oc3ccccc3)c2)cc1-c1ccccc1)C(=O)O` [Example 686], 48%.

As to `CSCC[C@H](NC(=O)c1ccc(CNc2ccc(F)cc2)cc1-c1ccccc1)C(=O)O` [Example 687], the inhibition at 10 µM stood at 78%. The same measure, in the same setting: to `CSCC[C@H](NC(=O)c1ccc(CNc2ccc(I)cc2)cc1-c1ccccc1)C(=O)O` [Example 688] belongs 71%; to `CSCC[C@H](NC(=O)c1ccc(CNc2ccc(O)cc2)cc1-c1ccccc1)C(=O)O` [Example 689], 73%; to `COc1ccc(NCc2ccc(C(=O)N[C@@H](CCSC)C(=O)O)c(-c3ccccc3)c2)cc1` [Example 690], 61%. Same read-out and setting: the result for `CSCC[C@H](NC(=O)c1ccc(CNc2ccc(C(C)C)cc2)cc1-c1ccccc1)C(=O)O` [Example 692] reads 74%; that for `CSCC[C@H](NC(=O)c1ccc(CNc2ccc(C3CCCCC3)cc2)cc1-c1ccccc1)C(=O)O` [Example 699], 74%; that for `CSCC[C@H](NC(=O)c1ccc(CNc2ccc(-c3ccccc3)cc2)cc1-c1ccccc1)C(=O)O` [Example 700], 68%.

Molecule `CSCC[C@H](NC(=O)c1ccc(CNc2ccc(Oc3ccccc3)cc2)cc1-c1ccccc1)C(=O)O` [Example 701] returned an inhibition at 10 µM of 64%. On the same count and under the same terms, to `CSCC[C@H](NC(=O)c1ccc(CNc2ccc(C(=O)c3ccccc3)cc2)cc1-c1ccccc1)C(=O)O` [Example 702] belongs 79%; to `CSCC[C@H](NC(=O)c1ccc(CNc2ccc(C)c(C)c2)cc1-c1ccccc1)C(=O)O` [Example 704], 67%. Molecule `CSCC[C@H](NC(=O)c1ccc(CNc2ccc3c(c2)CCC3)cc1-c1ccccc1)C(=O)O` [Example 705] gave an inhibition at 10 µM of 72%. `CSCC[C@H](NC(=O)c1ccc(CNc2ccc3c(c2)Cc2ccccc2-3)cc1-c1ccccc1)C(=O)O` [Example 706] showed an inhibition at 10 µM of 53%.

As to `CSCC[C@H](NC(=O)c1ccc(CNc2ccc3ncccc3c2)cc1-c1ccccc1)C(=O)O` [Example 708], testing at 10 µM gave an inhibition of 76%.

Turning to `CSCC[C@H](NC(=O)c1ccc(CNc2cc(C)cc(C)c2)cc1-c1ccccc1)C(=O)O` [Example 709], the inhibition at 10 µM was 55%. As to `CSCC[C@H](NC(=O)c1ccc(CNc2cc(C(=O)O)cc(C(=O)O)c2)cc1-c1ccccc1)C(=O)O` [Example 710], at 10 µM the inhibition was 45%. In turn, `CCN(Cc1ccc(C(=O)N[C@@H](CCSC)C(=O)O)c(-c2ccccc2)c1)Cc1cc([N+](=O)[O-])ccc1O` [Example 711] gave an inhibition at 10 µM of 46%. The molecule `CSCC[C@H](NC(=O)c1ccc(CNCc2cc(Cl)cc(Cl)c2)cc1-c1ccccc1)C(=O)O` [Example 712] displayed an inhibition at 10 µM of 69%. Molecule `CSCC[C@H](NC(=O)c1ccc(CNC(CO)C(O)c2ccccc2)cc1-c1ccccc1)C(=O)O` (stereo partly drawn) [Example 713] had an inhibition at 10 µM of 40%. Take `CSCC[C@H](NC(=O)c1ccc(CNC(CO)Cc2ccccc2)cc1-c1ccccc1)C(=O)O` (stereo partly drawn) [Example 714]: the inhibition at 10 µM turned out to be 56%. Consider `CSCC[C@H](NC(=O)c1ccc(CN[C@H](CC2CCCCC2)[C@H](O)[C@H](O)CC(C)C)cc1-c1ccccc1)C(=O)O` [Example 715], for which testing at 10 µM gave an inhibition of 67%. On to `CSCC[C@H](NC(=O)c1ccc(CNCCCCc2ccccc2)cc1-c1ccccc1)C(=O)O` [Example 718], for which testing at 10 µM gave an inhibition of 40%.

The same experiment, now with this note: at 1 × 10^-6 M.
In the case of `CSCCC(NC(=O)c1ccc(CNC(CO)c2ccccc2)cc1-c1ccccc1)C(=O)O` (stereo not drawn) [Example 657], the “% inhibition of farnesyltransferase” value came to 32%. `CSCCC(NC(=O)c1ccc(CNC(CO)c2ccccc2)cc1-c1ccccc1)C(=O)O` (stereo not drawn) [Example 658]: the “% inhibition of farnesyltransferase” value was 73%.

The same experiment, now with this note: at 1 × 10^-6 M; read-out: % inhibition of farnesyltransferase.
For the molecule `CSCC[C@H](NC(=O)c1ccc(CNc2ccccc2F)cc1-c1ccccc1)C(=O)O` [Example 642], the inhibition at 1 µM was determined as 48%. The same measure, in the same setting: the result for `CSCC[C@H](NC(=O)c1ccc(CNc2ccccc2C(N)=O)cc1-c1ccccc1)C(=O)O` [Example 644] reads 54%; that for `CSCC[C@H](NC(=O)c1ccc(CNc2ccccc2Oc2ccccc2)cc1-c1ccccc1)C(=O)O` [Example 645], 37%; that for `CCOC(=O)c1ccc(NCc2ccc(C(=O)N[C@@H](CCSC)C(=O)O)c(-c3ccccc3)c2)cc1` [Example 646], 58%.

Consider `CSCC[C@H](NC(=O)c1ccc(CN(CCC#N)Cc2ccccc2)cc1-c1ccccc1)C(=O)O` [Example 649], for which the inhibition at 1 µM amounted to 86%. Consider `COc1ccccc1CNCc1ccc(C(=O)N[C@@H](CCSC)C(=O)O)c(-c2ccccc2)c1` [Example 650], for which the inhibition at 1 µM came to 68%.

Consider `COc1cccc(CNCc2ccc(C(=O)N[C@@H](CCSC)C(=O)O)c(-c3ccccc3)c2)c1` [Example 652], for which the inhibition at 1 µM worked out at 41%.

As to `CSCC[C@H](NC(=O)c1ccc(CNCc2ccc(N)cc2)cc1-c1ccccc1)C(=O)O` [Example 653], the inhibition at 1 µM stood at 62%.

For the molecule `COc1ccc(CNCc2ccc(C(=O)N[C@@H](CCSC)C(=O)O)c(-c3ccccc3)c2)c(OC)c1` [Example 655], the inhibition at 1 µM came out at 35%. Same read-out and setting: the result for `CSCC[C@H](NC(=O)c1ccc(CNCC(O)c2cccc(O)c2)cc1-c1ccccc1)C(=O)O` (stereo partly drawn) [Example 661] reads 45%; that for `CSCC[C@H](NC(=O)c1ccc(CNC(CO)Cc2ccc(Cl)cc2)cc1-c1ccccc1)C(=O)O` (stereo partly drawn) [Example 662], 68%; that for `CSCC[C@H](NC(=O)c1ccc(CN[C@@H](/C=C\CC(C)C)CC2CCCCC2)cc1-c1ccccc1)C(=O)O` [Example 665], 55%.

Take `CSCC[C@H](NC(=O)c1ccc(CN[C@H](/C=C\CC(C)C)CC2CCCCC2)cc1-c1ccccc1)C(=O)O` [Example 666]: the inhibition at 1 µM was 82%. Regarding `CSCC[C@H](NC(=O)c1ccc(CNCCSc2ccccc2)cc1-c1ccccc1)C(=O)O` [Example 667], the inhibition at 1 µM is 83%. Same read-out and setting: to `CSCC[C@H](NC(=O)c1ccc(CNc2ccccc2CCO)cc1-c1ccccc1)C(=O)O` [Example 671] belongs 36%; to `CSCC[C@H](NC(=O)c1ccc(CNc2ccccc2N2CCCCC2)cc1-c1ccccc1)C(=O)O` [Example 673], 59%; to `CSCC[C@H](NC(=O)c1ccc(CNc2cccc(I)c2)cc1-c1ccccc1)C(=O)O` [Example 677], 37%. For `CSCC[C@H](NC(=O)c1ccc(CNc2cccc(C(N)=O)c2)cc1-c1ccccc1)C(=O)O` [Example 682], the inhibition at 1 µM was 31%. Turning to `CSCC[C@H](NC(=O)c1ccc(CNc2ccc(OC(F)(F)F)cc2)cc1-c1ccccc1)C(=O)O` [Example 691], the inhibition at 1 µM worked out at 34%. As to `CSCC[C@H](NC(=O)c1ccc(CNc2ccc(C(O)(C(F)(F)F)C(F)(F)F)cc2)cc1-c1ccccc1)C(=O)O` [Example 693], the inhibition at 1 µM was 53%. On the same count and under the same terms, to `CSCC[C@H](NC(=O)c1ccc(CNc2ccc(CCO)cc2)cc1-c1ccccc1)C(=O)O` [Example 694] belongs 45%; to `CSCC[C@H](NC(=O)c1ccc(CNc2ccc(N3CCCCC3)cc2)cc1-c1ccccc1)C(=O)O` [Example 697], 39%; to `CSCC[C@H](NC(=O)c1ccc(CNc2ccc(-c3nc4ccccc4s3)cc2)cc1-c1ccccc1)C(=O)O` [Example 703], 40%. For `CSCC[C@H](NC(=O)c1ccc(CN[C@@H](CC2CCCCC2)[C@@H](O)[C@@H](O)CC(C)C)cc1-c1ccccc1)C(=O)O` [Example 716], the inhibition at 1 µM was determined as 69%. On the same count and under the same terms, to `CSCC[C@H](NC(=O)c1ccc(CN(C)CC(O)CO)cc1-c1ccccc1C)C(=O)O` (stereo partly drawn) [Example 719] belongs 90%; to `CCc1nnc(NCc2ccc(C(=O)N[C@@H](CCSC)C(=O)O)c(-c3ccccc3C)c2)s1` [Example 723], 87%; to `COC(=O)c1cscc1NCc1ccc(C(=O)N[C@@H](CCSC)C(=O)O)c(-c2ccccc2C)c1` [Example 724], 87%.

For the molecule `CSCC[C@H](NC(=O)c1ccc(CNc2ccc(S(=O)(=O)Nc3onc(C)c3C)cc2)cc1-c1ccccc1C)C(=O)O` [Example 726], the inhibition at 1 µM turned out to be 81%.
